Molecular target: Mtb ThyX (Mycobacterium tuberculosis, UniProt P9WG57)
Experiment: M. tuberculosis ThyX NADPH oxidase assay
Type: biochemical
Conditions: 50 μM, screening hits (Figure 1); read-out: % inhibition (ThyX)

Sequence of Mtb ThyX (P9WG57 whole entry): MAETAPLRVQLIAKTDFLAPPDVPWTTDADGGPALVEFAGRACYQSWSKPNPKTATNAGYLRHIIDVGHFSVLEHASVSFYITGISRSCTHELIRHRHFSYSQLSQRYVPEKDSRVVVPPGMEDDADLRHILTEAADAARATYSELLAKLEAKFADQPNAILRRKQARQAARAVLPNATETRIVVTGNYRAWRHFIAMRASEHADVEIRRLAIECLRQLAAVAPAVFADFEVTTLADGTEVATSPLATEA

Row | Compound | inhibition at 50 µM [%]
1 | Cc1ccn2c(c1)nc1c(-c3ccc(OC(F)(F)F)cc3)nc(C(F)(F)F)nc12 [Compound 5] | 13.2
2 | OB(O)c1ccc(Sc2nc(C(F)(F)F)nc3c2nc2ccccn23)cc1 [Compound 6] | 17.1

Same assay, conditions: 200 μM compound, NADPH oxidase assay, 50 µM FAD

Row | Compound | Inhibition % (Mtb ThyX) [%]
3 | 1-[[p-(Dimethoxyphosphorylmethyl)phenyl]methyl]-3-(4-fluorophenyl)purino [9,8-a]pyridine-2,4-dione [Compound 13f] | 5.6
4 | 3-(p-Fluorophenyl)-8-hept-1-ynyl-1H-purino [9,8-a]pyridine-2,4-dione [Compound 20d] | 0
5 | 3-(p-Fluorophenyl)-8-hex-1-ynyl-1H-purino [9,8-a]pyridine-2,4-dione [Compound 20c] | 18.6

Same assay, conditions: 200 μM compound, NADPH oxidase assay, 50 µM FAD; read-out: Inhibition % (Mtb ThyX)

Row | Compound | inhibition at 200 µM [%]
6 | O=c1[nH]c2c(nc3ccccn32)c(=O)n1-c1ccc(Br)cc1 [Compound 9c, 3-(4-Bromophenyl)pyrido [1,2-e]purine-2,4(1H,3H)-dione] | 52.2
7 | O=c1[nH]c2c(nc3ccccn32)c(=O)n1-c1ccc(C(F)(F)F)cc1 [Compound 9e, 3-(4-(Trifluoromethyl)phenyl)pyrido [1,2-e]purine-2,4(1H,3H)-dione] | 31.7
8 | COc1ccc(-n2c(=O)[nH]c3c(nc4ccccn43)c2=O)cc1 [Compound 9f, 3-(p-Methoxyphenyl)pyrido [1,2-e]purine-2,4(1H,3H)-dione] | 8.1
9 | O=c1[nH]c2c(nc3ccccn32)c(=O)n1-c1cccc(F)c1 [Compound 9g, 3-(3-Fluorophenyl)pyrido [1,2-e]purine-2,4(1H,3H)-dione] | 12.8
10 | O=c1[nH]c2c(nc3ccccn32)c(=O)n1-c1ccc(F)c(F)c1 [Compound 9h, 3-(3,4-Difluorophenyl)pyrido [1,2-e]purine-2,4(1H,3H)-dione] | 22.7
11 | O=c1[nH]c2c(nc3ccccn32)c(=O)n1-c1ccc(F)cc1F [Compound 9i, 3-(2,4-Difluorophenyl)pyrido [1,2-e]purine-2,4(1H,3H)-dione] | 6.6
12 | Cc1ccc(-n2c(=O)[nH]c3c(nc4ccccn43)c2=O)cc1C [Compound 9j, 3-(3,4-Dimethylphenyl)pyrido [1,2-e]purine-2,4(1H,3H)-dione] | 19.9
13 | O=c1[nH]c2c(nc3ccccn32)c(=O)n1Cc1ccccc1 [Compound 10a, 3-(Benzyl)pyrido [1,2-e]purine-2,4(1H,3H)-dione] | 22.3
14 | O=c1[nH]c2c(nc3ccccn32)c(=O)n1Cc1ccc(F)cc1 [Compound 10b, 3-(p-Fluorobenzyl)pyrido [1,2-e]purine-2,4(1H,3H)-dione] | 21.2
15 | O=c1[nH]c2c(nc3ccccn32)c(=O)n1Cc1ccc(C(F)(F)F)cc1 [Compound 10c, 3-(p-(Trifluoromethyl)benzyl)pyrido [1,2-e]purine-2,4(1H,3H)-dione] | 20.7
16 | Cc1ccc(Cn2c(=O)[nH]c3c(nc4ccccn43)c2=O)cc1 [Compound 10d, 3-(p-Methylbenzyl)pyrido [1,2-e]purine-2,4(1H,3H)-dione] | 20.2
17 | O=c1c2nc3ccccn3c2[nH]c(=S)n1-c1ccc(F)cc1 [Compound 11, 3-(4-Fluorophenyl)-2-thioxo-2,3-dihydropyrido [1,2-e]purin-4(1H)-one] | 19.8
18 | O=c1c2nc3ccccn3c2[nH]c(=S)n1Cc1ccccc1 [Compound 12, 3-Benzyl-2-thioxo-2,3-dihydropyrido [1,2-e]purin-4(1H)-one] | 0
19 | O=c1c2nc3ccccn3c2n(Cc2ccccc2)c(=O)n1-c1ccc(F)cc1 [Compound 13a, 1-Benzyl-3-(4-fluorophenyl)purino [9,8-a]pyridine-2,4-dione] | 23.2
20 | Cc1ccc(Cn2c(=O)n(-c3ccc(F)cc3)c(=O)c3nc4ccccn4c32)cc1 [Compound 13b, 3-(p-Fluorophenyl)-1-[(p-methylphenyl)methyl]purino[9,8-a]pyridine-2,4-dione] | 10.9
21 | N#Cc1ccc(Cn2c(=O)n(-c3ccc(F)cc3)c(=O)c3nc4ccccn4c32)cc1 [Compound 13c, 4-[[3-(p-Fluorophenyl)-2,4-dioxo-purino[9,8-a]pyridin-1-yl]methyl]benzonitrile] | 26.5
22 | O=c1c2nc3ccccn3c2n(Cc2ccc([N+](=O)[O-])cc2)c(=O)n1-c1ccc(F)cc1 [Compound 13d, 3-(p-Fluorophenyl)-1-[(p-nitrophenyl)methyl]purino [9,8-a]pyridine-2,4-dione] | 0
23 | COC(=O)c1ccc(Cn2c(=O)n(-c3ccc(F)cc3)c(=O)c3nc4ccccn4c32)cc1 [Compound 13e, Methyl 4-[[3-(p-fluorophenyl)-2,4-dioxo-purino [9,8-a]pyridin-1-l]methyl]benzoate] | 44.8
24 | Cc1ccn2c(c1)nc1c(=O)n(-c3ccc(F)cc3)c(=O)[nH]c12 [Compound 18a, 3-(p-Fluorophenyl)-7-methylpyrido [1,2-e]purine-2,4(1H,3H)-dione] | 45.8
25 | Cc1ccc2nc3c(=O)n(-c4ccc(F)cc4)c(=O)[nH]c3n2c1 [Compound 18b, 3-(p-Fluorophenyl)-8-methylpyrido [1,2-e]purine-2,4(1H,3H)-dione] | 13.2

Row | Compound | inhibition at 200 µM [%]
26 | O=c1[nH]c2c(nc3cc(Br)ccn32)c(=O)n1-c1ccc(F)cc1 [Compound 19a, 7-Bromo-3-(p-fluorophenyl)pyrido [1,2-e]purine-2,4(1H,3H)-dione] | 8.8
27 | O=c1[nH]c2c(nc3ccc(Br)cn32)c(=O)n1-c1ccc(F)cc1 [Compound 19b, 8-Bromo-3-(p-fluorophenyl)pyrido [1,2-e]purine-2,4(1H,3H)-dione] | 5.4
28 | O=c1[nH]c2c(nc3cc(C#CCCc4ccccc4)ccn32)c(=O)n1-c1ccc(F)cc1 [Compound 20a, 3-(p-Fluorophenyl)-7-(4-phenylbut-1-ynyl)-1H-purino [9,8-a]pyridine-2,4-dione] | 32
29 | CCCc1ccc(C#Cc2ccn3c(c2)nc2c(=O)n(-c4ccc(F)cc4)c(=O)[nH]c23)cc1 [Compound 20b, 3-(p-Fluorophenyl)-7-[2-(4-propylphenyl)ethynyl]-1H-purino [9,8-a]pyridine-2,4-dione] | 0
30 | CCCCCCC#Cc1ccn2c(c1)nc1c(=O)n(-c3ccc(F)cc3)c(=O)[nH]c12 [Compound 20e, 3-(p-Fluorophenyl)-7-oct-1-ynyl-1H-purino [9,8-a]pyridine-2,4-dione] | 45.1
31 | CCCCCCCC(=O)NCC#Cc1ccn2c(c1)nc1c(=O)n(-c3ccc(F)cc3)c(=O)[nH]c12 [Compound 20f, N-[3-[3-(p-fluorophenyl)-2,4-dioxo-1H-purino [9,8-a]pyridin-7-yl]prop-2-ynyl]octanamide] | 18.8
32 | CCCCCCNC(=O)NCC#Cc1ccn2c(c1)nc1c(=O)n(-c3ccc(F)cc3)c(=O)[nH]c12 [Compound 20g, 1-[3-[3-(p-Fluorophenyl)-2,4-dioxo-1H-purino [9,8-a]pyridin-7-yl]prop-2-ynyl]-3-hexyl-urea] | 0
33 | O=c1[nH]c2c(nc3ccc(C#CCCc4ccccc4)cn32)c(=O)n1-c1ccc(F)cc1 [Compound 21a, 3-(p-Fluorophenyl)-8-(4-phenylbut-1-ynyl)-1H-purino [9,8-a]pyridine-2,4-dione] | 69.1
34 | CCCCC#Cc1ccc2nc3c(=O)n(-c4ccc(F)cc4)c(=O)[nH]c3n2c1 [Compound 21c, 3-(p-Fluorophenyl)-8-hex-1-ynyl-1H-purino [9,8-a]pyridine-2,4-dione] | 0
35 | CCCCCC#Cc1ccc2nc3c(=O)n(-c4ccc(F)cc4)c(=O)[nH]c3n2c1 [Compound 21d, 3-(p-Fluorophenyl)-8-hept-1-ynyl-1H-purino [9,8-a]pyridine-2,4-dione] | 32.5
36 | CCCCCCC#Cc1ccc2nc3c(=O)n(-c4ccc(F)cc4)c(=O)[nH]c3n2c1 [Compound 21e, 3-(p-Fluorophenyl)-8-oct-1-ynyl-1H-purino [9,8-a]pyridine-2,4-dione] | 31.7
37 | CCCCCCCC(=O)NCC#Cc1ccc2nc3c(=O)n(-c4ccc(F)cc4)c(=O)[nH]c3n2c1 [Compound 21f, N-[3-[3-(p-fluorophenyl)-2,4-dioxo-1H-purino [9,8-a]pyridin-8-yl]prop-2-ynyl]octanamide] | 16.9
38 | CCCCCCNC(=O)NCC#Cc1ccc2nc3c(=O)n(-c4ccc(F)cc4)c(=O)[nH]c3n2c1 [Compound 21g, 1-[3-[3-(p-Fluorophenyl)-2,4-dioxo-1H-purino [9,8-a]pyridin-8-yl]prop-2-ynyl]-3-hexyl-urea] | 28.2
39 | O=c1[nH]c2c(nc3cc(-c4ccccc4)ccn32)c(=O)n1-c1ccc(F)cc1 [Compound 22a, 3-(p-Fluorophenyl)-7-phenyl-1H-purino [9,8-a]pyridine-2,4-dione] | 20.7
40 | Cc1ccc(-c2ccn3c(c2)nc2c(=O)n(-c4ccc(F)cc4)c(=O)[nH]c23)cc1 [Compound 22b, 3-(p-Fluorophenyl)-7-(p-tolyl)-1H-purino [9,8-a]pyridine-2,4-dione] | 45.7
41 | COc1ccc(-c2ccn3c(c2)nc2c(=O)n(-c4ccc(F)cc4)c(=O)[nH]c23)cc1 [Compound 22c, 3-(p-Fluorophenyl)-7-(p-methoxyphenyl)-1H-purino [9,8-a]pyridine-2,4-dione] | ≤ 28
42 | O=c1[nH]c2c(nc3cc(-c4ccc(OC(F)(F)F)cc4)ccn32)c(=O)n1-c1ccc(F)cc1 [Compound 22d, 3-(p-fluorophenyl)-7-[p-(trifluoromethoxy)phenyl]-1H-purino [9,8-a]pyridine-2,4-dione] | ≤ 28
43 | O=c1[nH]c2c(nc3cc(-c4ccc(F)cc4)ccn32)c(=O)n1-c1ccc(F)cc1 [Compound 22e, 3,7-Bis(p-fluorophenyl)-1H-purino [9,8-a]pyridine-2,4-dione] | ≤ 28
44 | Cc1ccc(-c2ccc3nc4c(=O)n(-c5ccc(F)cc5)c(=O)[nH]c4n3c2)cc1 [Compound 23b, 3-(p-Fluorophenyl)-8-(p-tolyl)-1H-purino [9,8-a]pyridine-2,4-dione] | 44.4

Same assay, conditions: 200 µM, screening of in-house compound libraries; read-out: ThyX inhibitory effect

Row | Compound | inhibition at 200 µM [%]
45 | Cc1ccn2c(c1)nc1c(-c3ccc(OC(F)(F)F)cc3)nc(C(F)(F)F)nc12 [Compound 5] | 23.1
46 | OB(O)c1ccc(Sc2nc(C(F)(F)F)nc3c2nc2ccccn23)cc1 [Compound 6] | 33.2

— publication PMC9571937, “Synthesis and Structure–Activity Relationship Studies of Pyrido [1,2-e]Purine-2,4(1H,3H)-Dione Derivatives Targeting Flavin-Dependent Thymidylate Synthase in Mycobacterium tuberculosis” (Molecules, 2022)
